Each structure is given as a SMILES string.

The nature of assay [1]: Antioxidant activity assessed as trolox equivalent of ABTS radical scavenging activity after 12 to 16 hrs by spectrophotometry. It counts as functional.
Assay [2] is described as follows: Antioxidant activity against AAPH-induced lipid peroxidation assessed as trolox equivalent of peroxy radical scavenging activity after 10 mins by ORAC assay. It counts as functional.

For the compound `C[C@H]1O[C@@H](c2c(O)cc3oc(-c4ccc(O[C@@H]5O[C@H](CO)[C@@H](O)[C@H](O)[C@H]5O)c(O)c4)cc(=O)c3c2O)C[C@H](O)[C@H]1O`, the Activity came to 0.075 in assay [1] and 8.3 in assay [2].

As for `O=c1c(O)c(-c2ccc(O)c(O)c2)oc2cc(O)cc(O)c12`, the Activity in assay [1] was 3.99; in assay [2], 8.7.

For the compound `COc1cc(-c2cc(=O)c3c(O[C@@H]4O[C@H](CO)[C@@H](O)[C@H](O)[C@H]4O)cc(O)cc3o2)cc(OC)c1O`, the Activity in assay [1] came to 0.063; in assay [2], 18.2.

For `C[C@@H]1O[C@@H](O[C@@H]2C(=O)[C@H](O)[C@@H](C)O[C@H]2c2c(O)cc3oc(-c4ccc(O)c(O)c4)cc(=O)c3c2O)[C@H](O)[C@H](O)[C@H]1O`, the results for the Activity in assay [1] and in assay [2] were 0.646 and 5.7, respectively.

With `O=c1cc(-c2ccc(O)c(O)c2)oc2cc(O)c([C@@H]3O[C@H](CO)[C@@H](O)[C@H](O)[C@H]3O)c(O)c12`, the Activity in assay [1] is 1.56; in assay [2] it was 66.5.

For `C[C@H]1O[C@@H](c2c(O[C@@H]3O[C@H](CO)[C@@H](O)[C@H](O)[C@H]3O)cc3oc(-c4ccc(O)c(O)c4)cc(=O)c3c2O)C[C@H](O)[C@H]1O`, the Activity in assay [1] came out at 0.332; in assay [2], 26.8.

The values are drawn from ChEMBL document CHEMBL1221410, “Antioxidant flavone glycosides from the leaves of Fargesia robusta” (J Nat Prod, 2010).
